From PMC12639566, “Identification of antimalarial drugs and bradykinin as ligands of the Plasmodium membrane protein PfSR10” (iScience, 2025)
Peptide text beside a SMILES is read from it.

Assays:
PbSR10 = PbSR10 (Plasmodium berghei, UniProt A0A509AUP3); test: Gi protein trimer dissociation assay in HEK293 cells overexpressing PbSR10; assay type: cell-based
PfSR10 [1] = target: T1, PfSR10 (Plasmodium falciparum, UniProt Q8I5P8); test: FlAsH-BRET assay of PfSR10 extracellular conformational changes; assay type: cell-based
Experimental: To characterize the binding properties of different ligands (CQ, DHA, PIP-TT, PQ, bradykinin or des-Arg9-bradykinin) to PfSR10, a FlAsH BRET assay was performed as previously described.[29]^,[32]^,[49] We seeded HEK293 cells or COS-7 cells in 6-well plate were transfected with PfSR10 FlAsH BRET sensors (S1 to S6 as indicated in Figure 4B) and incubated for 48 h at 37°C in 5% CO2. The overexpressed PfSR10 sensors cells were washed with FlAsH BRET buffer (25 mM HEPES, 1 mM CaCl2, 140 mM NaCl, 2.7 mM KCl, 0.9 mM MgCl2, 0.37 mM NaH2PO4, 5.5 mM D-glucose, 12 mM NaHCO3) and incubated with 2.5 μM FlLAsH EDT2 (pre-diluted in FLAsH BRET buffer) for 40min at 37°C in 5% CO2. The cells were washed twice, resuspended with FlAsH BRET buffer, and seeded into a 96-well plate at a density of 5x10^4 per well. After adding increasing concentrations of ligand (CQ, DHA, PIP-TT, PQ, bradykinin or des-Arg9-bradykinin) together with luciferase substrate coelenterazine-h (5 μM), the BRET signals between Nluc (440-480 nm) and FlAsH fluorescent moiety (525-585 nm) emissions were examined by a Mithras LB 940 Multimode Microplate Reader.

PfSR10 [2] = target: T1, PfSR10; test: GloSensor-cAMP assay, inhibition of forskolin-induced cAMP in PfSR10-overexpressing HEK293 cells; assay type: cell-based; details: for Fsk-induced cAMP level elevation (in words): PfSR10-overexpressing HEK293 cells, concentration-dependent
Experimental: (§1) To examine the constitutive activity of PfSR10, we transfected HEK293 cells with different concentrations of the receptor, including PfSR10, ADGRG2, ADGRG3. For measuring the anti-malarial drugs, bradykinin or des-Arg9-bradykinin-induced inhibition of forskolin-stimulated cAMP level in HEK293 cells or COS-7 cells, the receptor encoding plasmid (PfSR10 or its mutants) or empty plasmid (pcDNA3.1) was co-transfected with the GloSensor plasmid and incubated in an incubator at 37°C with 5% CO2 for 24 h. The transfected cells were then inoculated on 96-well plates (at a density of 4 × 10^4 / well) and incubated in incubators under the same conditions for another 24 hours. Cells were precultured with serum-free medium (Gibco) containing 5% DILUTED GloSensor™cAMP reagent Reserve solution (Progema) for 2 h. The base cAMP signal was directly measured using a multimode tablet reader (PerkinElmer Envision). At the same time, the cAMP signal induced by DHA, PIP-TT, PQ, CQ bradykinin or des-Arg9-bradykinin was detected after adding agonists into the corresponding Wells. Finally, the s-shaped dose response function in GraphPad Prism 7.0 was used to analyze the data.

PfSR10 [3] = target: T1, PfSR10; test: Gi1-Gγ dissociation BRET assay in PfSR10-overexpressing HEK293 cells; assay type: cell-based; details: for Gi1 coupling with PfSR10 (in words): G protein dissociation assay
Description: (§2) To characterize the G protein signalling properties of PfSR10, G protein BRET probes were generated according to previous publication.[50] The Gqo BRET probes were generated by replacing the six amino acids of the C- terminus of Gq -RlucII with those from GoA1, creating a chimeric Gqo-RlucII subunit.[51] HEK293 cells or COS-7 cells were co-transfected with PfSR10 and various G protein probes (Gi, Gq and Gqo). Forty-eight hours post-transfection, cells were washed twice with HBSS, resuspended with HBSS buffer, and seeded into a 96-well plate at a density of 5x10^4 per well. After adding increasing concentrations of ligand (CQ, DHA, PIP-TT, PQ, Bradykinin, des-Arg9-bradykinin, bradykinin-Arg-FITC, FITC-bradykinin) together with luciferase substrate coelenterazine 400a (5 μM, Cayman), the BRET signals between […] (440-480 nm) and GFP2 (510 nm) emissions were examined by a Mithras LB 940 Multimode Microplate Reader (Berthold Technologies). The BRET signal was calculated as the ratio of the GFP2 emission to Nluc emission.

PfSR10 [4] = target: T1, PfSR10; test: Gq-Gγ dissociation BRET assay in PfSR10-overexpressing HEK293 cells; assay type: cell-based
Description: as §2

PySR10 = PySR10 (Plasmodium yoelii, UniProt V7PQD6); test: Gi dissociation assay in HEK293 cells overexpressing PySR10; assay type: cell-based; details: read-out: Gi activity EC50 downstream of PySR10
PcSR10 = PcSR10 (Plasmodium chabaudi, UniProt A0A4V0KCI5); test: Gi dissociation assay in HEK293 cells overexpressing PcSR10; assay type: cell-based; details: read-out: Gi activity EC50 downstream of PcSR10
PfSR10 [5] = target: T1, PfSR10; test: cAMP inhibition in PfSR10-overexpressing COS-7 cells; assay type: cell-based; details: read-out: EC50 in COS-7 cell
Experimental: as §1

[6] = target: PySR10 (SR10 of Plasmodium yoelii) (Plasmodium yoelii)
[7] = target: PcSR10 (SR10 of Plasmodium chabaudi) (Plasmodium chabaudi)

T1 sequence (Q8I5P8 entry or part of it): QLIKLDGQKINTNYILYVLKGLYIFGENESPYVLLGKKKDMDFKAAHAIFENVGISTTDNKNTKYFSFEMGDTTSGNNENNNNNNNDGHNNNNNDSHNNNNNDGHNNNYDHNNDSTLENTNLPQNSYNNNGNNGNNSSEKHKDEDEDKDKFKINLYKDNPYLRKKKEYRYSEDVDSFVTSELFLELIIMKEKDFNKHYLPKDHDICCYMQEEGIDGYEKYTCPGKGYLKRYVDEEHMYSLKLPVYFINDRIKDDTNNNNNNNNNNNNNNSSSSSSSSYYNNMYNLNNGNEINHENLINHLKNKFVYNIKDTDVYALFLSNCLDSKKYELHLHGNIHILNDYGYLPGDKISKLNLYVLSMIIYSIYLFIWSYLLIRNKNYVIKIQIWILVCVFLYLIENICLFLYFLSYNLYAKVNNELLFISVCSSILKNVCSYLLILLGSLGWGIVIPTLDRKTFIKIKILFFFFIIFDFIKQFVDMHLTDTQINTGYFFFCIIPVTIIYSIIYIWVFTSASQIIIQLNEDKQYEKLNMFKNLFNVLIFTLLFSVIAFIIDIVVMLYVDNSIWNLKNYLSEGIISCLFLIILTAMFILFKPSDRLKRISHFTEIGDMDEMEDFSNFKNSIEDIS
PbSR10, sequence (A0A509AUP3 entry or part of it): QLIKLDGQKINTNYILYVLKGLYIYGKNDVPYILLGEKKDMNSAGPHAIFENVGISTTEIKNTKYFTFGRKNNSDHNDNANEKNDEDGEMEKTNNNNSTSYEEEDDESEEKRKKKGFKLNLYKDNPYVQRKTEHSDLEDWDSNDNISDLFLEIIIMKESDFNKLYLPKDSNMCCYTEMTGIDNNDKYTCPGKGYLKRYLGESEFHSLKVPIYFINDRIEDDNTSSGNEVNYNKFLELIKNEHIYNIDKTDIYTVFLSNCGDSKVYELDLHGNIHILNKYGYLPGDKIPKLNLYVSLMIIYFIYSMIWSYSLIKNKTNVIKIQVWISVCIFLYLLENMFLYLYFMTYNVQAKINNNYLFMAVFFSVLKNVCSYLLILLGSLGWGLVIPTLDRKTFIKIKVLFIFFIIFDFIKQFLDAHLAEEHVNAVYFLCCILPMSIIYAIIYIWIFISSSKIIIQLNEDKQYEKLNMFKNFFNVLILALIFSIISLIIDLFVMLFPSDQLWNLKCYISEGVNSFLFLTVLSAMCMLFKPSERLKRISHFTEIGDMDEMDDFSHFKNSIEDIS
PcSR10, sequence (A0A4V0KCI5 entry or part of it): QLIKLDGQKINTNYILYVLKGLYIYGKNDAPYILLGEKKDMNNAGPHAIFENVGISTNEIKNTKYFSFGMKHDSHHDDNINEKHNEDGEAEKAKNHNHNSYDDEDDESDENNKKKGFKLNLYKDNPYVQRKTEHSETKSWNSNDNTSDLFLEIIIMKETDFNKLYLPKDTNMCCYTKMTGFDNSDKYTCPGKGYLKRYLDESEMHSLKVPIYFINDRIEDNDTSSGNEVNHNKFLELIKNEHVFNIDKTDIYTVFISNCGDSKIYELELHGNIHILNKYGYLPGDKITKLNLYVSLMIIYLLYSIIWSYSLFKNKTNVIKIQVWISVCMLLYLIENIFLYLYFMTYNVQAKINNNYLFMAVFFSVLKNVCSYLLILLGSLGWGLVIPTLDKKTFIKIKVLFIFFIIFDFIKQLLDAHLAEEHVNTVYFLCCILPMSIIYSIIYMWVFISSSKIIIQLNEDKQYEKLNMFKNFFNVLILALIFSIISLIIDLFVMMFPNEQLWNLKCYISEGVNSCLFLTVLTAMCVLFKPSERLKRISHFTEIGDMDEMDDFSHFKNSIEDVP
PySR10, sequence (V7PQD6 entry or part of it): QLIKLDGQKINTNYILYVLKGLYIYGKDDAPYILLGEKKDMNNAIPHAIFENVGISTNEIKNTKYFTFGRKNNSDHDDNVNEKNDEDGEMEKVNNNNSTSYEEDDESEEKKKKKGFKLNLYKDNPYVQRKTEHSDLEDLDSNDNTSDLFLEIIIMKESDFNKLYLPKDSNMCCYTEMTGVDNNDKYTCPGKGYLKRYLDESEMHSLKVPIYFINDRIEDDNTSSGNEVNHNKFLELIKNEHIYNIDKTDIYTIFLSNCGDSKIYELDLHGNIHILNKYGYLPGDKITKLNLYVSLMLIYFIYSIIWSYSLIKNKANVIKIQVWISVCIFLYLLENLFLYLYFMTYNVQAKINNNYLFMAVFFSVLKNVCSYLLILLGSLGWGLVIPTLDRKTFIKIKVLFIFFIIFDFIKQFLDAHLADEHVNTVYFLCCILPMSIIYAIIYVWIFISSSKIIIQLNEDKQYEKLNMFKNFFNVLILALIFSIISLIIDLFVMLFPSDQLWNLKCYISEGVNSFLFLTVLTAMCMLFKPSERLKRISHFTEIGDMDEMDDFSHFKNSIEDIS

COc1cc(NC(C)CCCN)c2ncccc2c1 (stereo not shown) [PQ, primaquine diphosphate]
Gi dissociation downstream of PbSR10 (PbSR10): promoted Gi dissociation | ECL1 movement relative to the PfSR10 N-terminus (PfSR10 [1]; concentration-dependent): inward movement of ECL1 toward the PfSR10 N-terminus | EC50 (PfSR10 [2]): 17.4 ± 4.77 nM | cAMP inhibition Emax (PfSR10 [2]; HEK293 cells overexpressing PfSR10, mean ± SEM): 1.153 ± 0.06 × 10^3

N=C(N)NCCC[C@H](NC(=O)[C@H](Cc1ccccc1)NC(=O)[C@@H]1CCCN1C(=O)[C@H](CO)NC(=O)[C@H](Cc1ccccc1)NC(=O)CNC(=O)[C@@H]1CCCN1C(=O)[C@@H]1CCCN1C(=O)[C@@H](N)CCCNC(=N)N)C(=O)O [bradykinin] (H-RPPGFSPFR-OH)
ECL movements of PfSR10 by FlAsH-BRET sensors (kinin peptides) (PfSR10 [1]): movement of ECL1 and ECL3 toward the N-terminus and separation of the ECL2 region and N-terminus of PfSR10 | Gi1 coupling with PfSR10 (in words) (PfSR10 [3]): promoted Gi1 coupling to PfSR10 | Fsk-induced cAMP level elevation (in words) (PfSR10 [2]): significantly inhibited | Gq dissociation signal (in words) (PfSR10 [4]; PfSR10-overexpressing cells): remarkable reduction

NC(N)=NCCC[C@H](NC(=O)[C@H](Cc1ccccc1)NC(=O)[C@@H]1CCCN1C(=O)[C@H](CO)NC(=O)[C@H](Cc1ccccc1)NC(=O)CNC(=O)[C@@H]1CCCN1C(=O)[C@@H]1CCCN1C(=O)[C@@H](N)CCCN=C(N)N)C(=O)O [bradykinin] (H-RPPGFSPFR-OH)
EC50 (PySR10): 0.67 ± 0.29 nM | EC50 (PfSR10 [3]): 0.38 ± 0.11 nM | EC50 (PfSR10 [2]): 1.82 ± 0.83 nM | EC50 (PcSR10): 0.15 ± 0.005 nM | EC50 (PfSR10 [4]): 0.53 ± 0.06 nM

N=C(N)NCCC[C@H](N)C(=O)N1CCC[C@H]1C(=O)N1CCC[C@H]1C(=O)NCC(=O)N[C@@H](Cc1ccccc1)C(=O)N[C@@H](CO)C(=O)N1CCC[C@H]1C(=O)N[C@@H](Cc1ccccc1)C(=O)O [des-Arg9-bradykinin]
EC50 (PfSR10 [5]): 0.29 ± 0.08 nM | ECL movements of PfSR10 by FlAsH-BRET sensors (kinin peptides) (PfSR10 [1]): movement of ECL1 and ECL3 toward the N-terminus and separation of the ECL2 region and N-terminus of PfSR10 | Gi1 coupling with PfSR10 (in words) (PfSR10 [3]): promoted Gi1 coupling to PfSR10 | Fsk-induced cAMP level elevation (in words) (PfSR10 [2]): significantly inhibited

RPPGFSPFR [bradykinin]
EC50 of Gi activity downstream of PySR10, concentration-dependent [6]: 0.67 nM | EC50 of Gi activity downstream of PcSR10, concentration-dependent [7]: 0.15 nM
